US20260250337A1, “HYBRID ANTIMICROBIAL PEPTIDES” (UNIVERSIDADE FEDERAL DO ABC, priority 2023, published 2026)
No end group written: not given here.

Columns and labels:
M. luteus A270 = test: Liquid growth inhibition assay, MIC; assay type: cell-based, Micrococcus luteus; conditions: 37° C., 18 h
Protocol: (§1) Initially, the antimicrobial activity was determined by liquid growth inhibition assays, as previously described by Pedron et al.^62. Briefly, Peptone Broth and Potato Dextrose Broth (Invitrogen) were used for antibacterial and antifungal assays, respectively. Two-fold serial dilutions of peptides (0.09-50 μmol L^−1) and microorganisms (Serratia marcescens ATCC 4112, Enterobacter cloacae β-12, Micrococcus luteus A270, Bacillus megaterium ATCC 10778, Bacillus subtilis ATCC 6633, Candida albicans MDM8, and Candida tropicalis IOC 4560) were incubated at 37° C. for 18 h (for bacteria) or 24 h (for fungi), and microbial growth was assessed by absorbance measurements at 595 nm. Experiments were performed in three biological repeats.

A. baumannii ATCC19606 [1] = test: DiSC3(5) assay, cytoplasmic membrane depolarization; assay type: cell-based; conditions: peptides at their MIC
Protocol: Method. The cytoplasmatic membrane depolarization activity of two of the naturally occurring peptides (VmCT1 and temporin A) and two of the hybrids (VT and TV) was determined at their MIC by performing the membrane potential-sensitive dye DiSC3(5), as reported previously^105, 106. A. baumannii ATCC19606 cells were grown at 37° C. with agitation to an optical density of 600 nm (OD600) of 0.5, centrifuged, washed twice with buffer (5 mmol L^−1 HEPES, 20 mmol L^−1 glucose, pH 7.2), and resuspended to an OD600 of 0.05 in the same buffer but containing 0.1 mol L^−1 KCl. Cells (100 μL) were incubated for 15 minutes with 20 nmol L^−1 of DiSC3(5) until a stable reduction in fluorescence was observed, indicating the incorporation of the DiSC3(5) into the bacterial membrane. After adding the peptides (100 μL solution at 1.2 μmol L^−1), membrane depolarization was determined by the change observed in the fluorescence emission intensity of the dye at λex=622 nm and […].

A. baumannii ATCC19606 [2] = test: Skin abscess infection mouse model; assay type: in vivo, mice; conditions: for anti-infective activity four days after the treatment, reduction of load of A. baumannii cells / anti-infective activity two days post-treatment: skin infection, peptides onto the abscess at their MIC; for anti-infective activity versus parent peptides: skin scarification mouse model
Protocol: Skin abscess infection mouse model. The anti-infective activity of the peptides VmCT1, temporin A, VT, and TV against A. baumannii ATCC19606 was evaluated as described by Torres et al.^82. Bacteria were grown in tryptic soy broth medium to an optical density of 0.5 at 600 nm. Cells were washed twice with sterile phosphate buffered saline (pH 7.4, 13,000 rpm for 1 min) and resuspended to a final concentration of 1×10^7 CFU/20 μL. To generate the skin infection, female CD-1 mice (6 weeks-old) were first anesthetized with isoflurane and their backs were shaved. A superficial linear abrasion was made with a needle on the shaved area to injure only the stratum corneum and the upper layer of the epidermis. An aliquot of 20 μL suspension containing 1×10^7 CFU of A. baumannii was then inoculated over the wound area with a pipette tip. The next day, the infected area was inoculated with the peptides (VmCT1, temporin A, VT, and TV), which were administered onto the abscess at their MIC. The animals were euthanized, and the scarified skin area removed 2- and 4-days post-infection. The excised area was homogenized using a bead beater for 20 min (25 Hz) and serially diluted for CFU quantification. Two independent experiments were carried out with 3 mice per group in each condition.

[3] = test system: Plasmodium gallinaceum sporozoites; test: Antiplasmodial activity, fluorescence microscopy; assay type: cell-based; conditions: for P. gallinaceum (% sporozoites at 0.8 μmol L^−1): fluorescent (propidium iodide stained) sporozoites, 37° C., 1 h; for antiplasmodial activity: P. gallinaceum sporozoites, concentration range tested
Protocol: Method. The activity of the peptides against Plasmodium gallinaceum sporozoites was determined by fluorescence microscopy, as previously described by Silva et. al.^83. Briefly, 9,000 sporozoites were isolated from the glands of infected Aedes aegypti mosquitos and incubated with serially diluted peptides (ranging from 0.1 to 1.6 μmol L^−1) at 37° C. for 1 h. A PBS solution and the surfactant digitonin^84, 85 were used as negative and positive controls, respectively. Propidium iodide was used to stain dead cells. Assays were executed using fluorescence microscopy. Three biological repeats each with three different mosquito batches (n=9) were used.

S. marcescens ATCC 4112 = test: Liquid growth inhibition assay, MIC; assay type: cell-based, Serratia marcescens; conditions: 37° C., 18 h
Protocol: as §1

[4] = Resistance to degradation in fetal bovine serum; assay type: in vitro ADME; conditions: for remaining at 0.5 h / remaining peptide, 30 min: 30 min; for remaining at 0.5 h: read-out: remaining peptide, 30 min
Protocol: The resistance to proteolytic degradation of the hybrid peptides was assessed by exposing them for 6 h to serum peptidases in a fetal bovine serum solution^68, 69 (FIG. 5a and Table S4). The peptide degradation kinetics were calculated by integrating the peak area of the peak in relation to the peptide at the beginning of the experiment (time=0) and comparing it to the integrated peak area relative to the peptides after exposure to the enzymes at time points: 0.5, 1, 2, 4, and 6 h (FIG. 5a and Table S4). […] However, AV was resistant to degradation against proteases, with almost 40% peptide content remaining after 4 h of exposure (FIG. 5a and Table S4). […] VP was almost entirely degraded after 30 min (22% of peptide remaining). […] D-amino acid substitutions have been used as alternatives to prevent the degradation of AMPs. For example, Qiu et. al. described a protonectin analog with a D-Lys residue in position 10 as an alternative to protonectin; this analog is not degraded and has higher antimicrobial activity against bacteria and fungi than the original peptide.
Methods. Stability assays were performed following the protocol described by Torres et al.^71. Briefly, a peptide solution was added to GIBCO fetal bovine serum diluted to 25% in water and kept at 37° C. The degradation kinetics were monitored by liquid chromatography and the percentage of peptide remaining was calculated by integrating the peptide peak area. The experiments were performed as three independent replicates, and aliquots were taken at 0, 0.5, 1, 2, 4, and 6 h.

[5] = test system: MCF-7 human breast cancer cells; test: Anticancer activity, MTT assay; assay type: cell-based; conditions: for MCF-7 4 h LD50 / MCF-7 24 h LD50: MTT
Protocol: The anticancer activity assays were performed using MCF-10A human breast epithelial cells and MCF-7 mammary cancer cells as previously described by Pedron et al. 86. Briefly, the day before treatment, the cells were incubated at 37° C. and 5% CO2 for 24 h. The cells were treated with peptides ranging from 12.5 to 100 μmol L^−1 (MCF10-A cells) and 0.8 to 100 μmol L^−1 (MCF-7 cells) for 4 h and 24 h at 37° C., and cell viability was measured using 3-(4,5-Dimethylthiazol-2-yl)-2,5-diphenyltetrazolium bromide (MTT) assays 87. Three independent replicates were performed in each case.

[6] = bovine, fetal bovine serum, 25% in water, fetal bovine serum 25% in water, 37° C.
[7] = fetal bovine serum 25% in water, 37° C.

| Substance | MIC M. luteus A270 (M. luteus A270) [µM] | cytoplasmic membrane depolarization, DiSC3(5) fluorescence (A. baumannii ATCC19606 [1]) | anti-infective activity four days after the treatment, reduction of load of A. baumannii cells (A. baumannii ATCC19606 [2]) | anti-infective activity two days post-treatment (A. baumannii ATCC19606 [2]) | anti-infective activity versus parent peptides (A. baumannii ATCC19606 [2]) | P. gallinaceum (% sporozoites at 0.8 μmol L^−1) [3] [%] | antiplasmodial activity [3] | MIC S. marcescens ATCC 4112 (S. marcescens ATCC 4112) [µM] | remaining at 0.5 h [4, 6] [%] | remaining at 1 h ([4]; bovine, fetal bovine serum, 25% in water, fetal bovine serum 25% in water, 37° C., 1 h, read-out: remaining peptide, 1 h) [%] | remaining at 2 h ([4]; bovine, fetal bovine serum, 25% in water, fetal bovine serum 25% in water, 37° C., 2 h, read-out: remaining peptide, 2 h) [%] | remaining peptide, 30 min [4, 7] | remaining peptide, 1 h ([4]; fetal bovine serum 25% in water, 37° C., 1 h) | MCF-7 4 h LD50 [5] [µmol/L] | MCF-7 24 h LD50 [5] [µmol/L] | concentration with activity against MCF-7 human breast cancer cells ([5]; incubation time not stated) [µmol/L] | time of exposure after which totally degraded ([4]; fetal bovine serum) [h] |
| --- | --- | --- | --- | --- | --- | --- | --- | --- | --- | --- | --- | --- | --- | --- | --- | --- | --- |
| FLGAIGNVLKSIL-NH2 [TV, Phe-Leu-Gly-Ala-Ile-Gly-Asn-Val-Leu-Lys-Ser-Ile-Leu] | 6.3 | depolarized the cytoplasmic membrane | two orders of magnitude | increased anti-infective activity when compared to the parent peptides | more potent than that of either parent peptides | 83 | exhibited antiplasmodial activity | 6.3 | – | – | – | – | – | – | – | – | – |
| FLGALWNVAKSVF-NH2 [VmCT1, Phe-Leu-Gly-Ala-Len-Trp-Asu-Val-Ala-Lys-Ser-Val-Phe, reference compound] | 0.8 | – | – | – | – | 93 | – | 0.4 | ~20 | < 10 | < 10 | approximately 20% | less than 10% | 50 | 12.5 | 50 | – |
| FLPLIGRVLSGIL-NH2 [Temporin A, Phe-Leu-Pro-Leu-Ile-Gly-Arg-Val-Leu-Ser-Gly-Ile-Leu, reference compound] | 3.1 | – | – | – | – | 15 | no activity | 12.5 | – | – | – | – | – | 50 | 50 | – | – |
| FLPLLWRVASGVF-NH2 [VT, Phe-Leu-Pro-Leu-Leu-Trp-Arg-Val-Ala-Ser-Gly-Val-Phe] | 3.1 | depolarized the cytoplasmic membrane | the same effect as the two parent peptides | increased anti-infective activity when compared to the parent peptides | more potent than that of either parent peptides | 2 | did not exhibit significant antiplasmodial activity | 12.5 | – | – | – | – | – | – | – | – | – |
| ILGAILNVLKSLG-NH2 [PV, Ile-Leu-Gly-Ala-Ile-Leu-Asn-Val-Leu-Lys-Ser-Leu-Gly] | 3.1 | – | – | – | – | 41 | – | 12.5 | ~90 | – | – | ~ 90% | – | – | – | – | 1 |
